We go through five compounds from paper PMC5051719, “Fourth-Generation Progestins Inhibit 3β-Hydroxysteroid Dehydrogenase Type 2 and Modulate the Biosynthesis of Endogenous Steroids” (PLoS ONE, 2016).

Molecules are shown by their SMILES. Read-outs that look alike come from different tables or passages of the source.

Common to all, as to format: cell-based
For assay [1], the target named is T1, cytochrome P450 17α-hydroxylase/17,20 lyase (CYP17A1) (Homo sapiens, UniProt P05093).
T1 construct: pIRES-hCYP17A1-V5-X-hCYPB5-6HIS expressed in COS-1 cells
T1 sequence (P05093 whole entry): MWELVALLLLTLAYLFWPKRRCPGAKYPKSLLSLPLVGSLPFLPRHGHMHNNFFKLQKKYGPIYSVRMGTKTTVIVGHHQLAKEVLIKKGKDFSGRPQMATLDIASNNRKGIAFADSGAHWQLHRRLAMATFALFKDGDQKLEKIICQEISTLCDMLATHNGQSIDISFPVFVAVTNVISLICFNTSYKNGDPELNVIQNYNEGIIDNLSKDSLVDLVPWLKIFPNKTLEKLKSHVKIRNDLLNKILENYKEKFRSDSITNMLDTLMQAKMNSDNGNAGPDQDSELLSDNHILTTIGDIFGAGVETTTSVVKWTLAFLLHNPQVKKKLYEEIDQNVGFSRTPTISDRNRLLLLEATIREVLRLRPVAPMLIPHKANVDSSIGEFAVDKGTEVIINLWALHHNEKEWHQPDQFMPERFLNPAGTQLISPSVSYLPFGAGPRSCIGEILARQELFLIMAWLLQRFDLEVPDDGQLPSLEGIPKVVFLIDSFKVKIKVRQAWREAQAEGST
T1 sequence (P00167 2-134, further chain): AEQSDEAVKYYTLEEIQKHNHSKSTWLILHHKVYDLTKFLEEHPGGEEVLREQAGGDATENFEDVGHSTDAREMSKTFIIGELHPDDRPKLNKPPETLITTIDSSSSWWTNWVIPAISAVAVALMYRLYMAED
Kind of assay: progesterone conversion in transfected COS-1 cells with […] inhibitor, UPLC-MS/MS.

Assay [2] deals with T2, 3β-hydroxysteroid dehydrogenase type 2 (3βHSD2) (Homo sapiens, UniProt P26439).
T2 construct: gene HSD3B2
T2 sequence (P26439 1-372): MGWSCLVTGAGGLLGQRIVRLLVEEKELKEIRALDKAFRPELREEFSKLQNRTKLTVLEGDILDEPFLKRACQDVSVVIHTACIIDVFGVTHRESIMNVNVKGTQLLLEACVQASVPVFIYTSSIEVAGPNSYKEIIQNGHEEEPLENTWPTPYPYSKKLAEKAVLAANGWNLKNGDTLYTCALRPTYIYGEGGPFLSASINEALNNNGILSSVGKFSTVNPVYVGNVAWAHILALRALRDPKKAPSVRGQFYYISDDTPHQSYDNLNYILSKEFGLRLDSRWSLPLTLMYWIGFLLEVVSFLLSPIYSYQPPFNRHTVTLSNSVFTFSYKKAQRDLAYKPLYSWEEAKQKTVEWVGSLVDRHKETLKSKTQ
Kind of assay: pregnenolone to progesterone conversion kinetics in transfected COS-1 cells, UPLC-MS/MS.

Assay [3] deals with T2, 3β-hydroxysteroid dehydrogenase type 2 (3βHSD2). Kind of assay: Michaelis-Menten kinetics of conversion to progesterone in transfected COS-1 cells (Km), UPLC-MS/MS.

One may read the inhibition as the change of the read-out against control, counted positive when it falls. Higher therefore signals strong suppression. For orientation: Ki means a measure of affinity in units of concentration, obtained from inhibition or displacement. In turn, `C[C@]12CCC(=O)C=C1[C@@H]1C[C@@H]1[C@H]1[C@@H]3[C@@H]4C[C@@H]4[C@@]4(CCC(=O)O4)[C@@]3(C)CC[C@@H]12` [DRSP, drospirenone] had an inhibition at 1 µM in assay [1] of 55.2 ± 16.5%. The inhibition constant Ki in assay [2] (read-out: Ki) turned out to be 232 ± 38 nM.

For `C=C1C[C@H]2[C@@H]3CCC4=CC(=O)CCC4[C@H]3CC[C@]2(C)C1(OC(C)=O)C(C)=O` (stereo partly drawn) [NES, nestorone], in assay [2] (read-out: Ki), the Ki was found to be 9.5 ± 0.96 nM.

Turning to `CC(=O)O[C@]1(C(C)=O)CC[C@H]2[C@@H]3C=C(C)C4=CC(=O)CC[C@@H]4[C@H]3CC[C@@]21C` [NoMAC, nomegestrol acetate], the inhibition constant Ki in assay [2] (read-out: Ki) came to 29 ± 7.1 nM.

As usually defined, the Km is the concentration of substrate that gives half-maximal velocity. As for `CC(=O)[C@H]1CC[C@H]2[C@@H]3CC=C4C[C@@H](O)CC[C@]4(C)[C@H]3CC[C@]12C` [Preg, pregnenolone], the Km in assay [3] worked out at 0.85 ± 0.05 µM.

`C[C@]12CC[C@H]3[C@@H](CC[C@@]45O[C@@H]4C(O)=C(C#N)C[C@]35C)[C@@H]1CC[C@@H]2O` [trilostane, reference compound] came in with an inhibition constant (Ki) in assay [2] of 31.3 ± 5.5 nM.
